Earlier results on one compound are cited in patent US8187800B2, “Methods for selecting active agents for cancer treatment” (Precision Therapeutics, Inc., priority 2007, dated 2012).

SMILES strings stand for the structures.

The data set deals with breast cancer. The conditions noted are these: neoadjuvant therapy in breast cancer patients; 4 cycles FEC, then 4 cycles docetaxel.

With `CC(=O)O[C@@]12CO[C@@H]1C[C@H](O)[C@@]1(C)C(=O)[C@H](O)C3=C(C)[C@@H](OC(=O)[C@H](O)[C@@H](NC(=O)OC(C)(C)C)c4ccccc4)C[C@@](O)([C@@H](OC(=O)c4ccccc4)[C@H]21)C3(C)C` [docetaxel], the overall clinical response is reported as 75%.
